Data on six compounds can be found in ChEMBL document CHEMBL1201862, “PubChem BioAssay data set” (2004).

Active and inactive are the calls of the source.

For test [1], the target named is T1, Heat shock factor protein 1 (Mus musculus, UniProt P38532).
T1 sequence (P38532 whole entry): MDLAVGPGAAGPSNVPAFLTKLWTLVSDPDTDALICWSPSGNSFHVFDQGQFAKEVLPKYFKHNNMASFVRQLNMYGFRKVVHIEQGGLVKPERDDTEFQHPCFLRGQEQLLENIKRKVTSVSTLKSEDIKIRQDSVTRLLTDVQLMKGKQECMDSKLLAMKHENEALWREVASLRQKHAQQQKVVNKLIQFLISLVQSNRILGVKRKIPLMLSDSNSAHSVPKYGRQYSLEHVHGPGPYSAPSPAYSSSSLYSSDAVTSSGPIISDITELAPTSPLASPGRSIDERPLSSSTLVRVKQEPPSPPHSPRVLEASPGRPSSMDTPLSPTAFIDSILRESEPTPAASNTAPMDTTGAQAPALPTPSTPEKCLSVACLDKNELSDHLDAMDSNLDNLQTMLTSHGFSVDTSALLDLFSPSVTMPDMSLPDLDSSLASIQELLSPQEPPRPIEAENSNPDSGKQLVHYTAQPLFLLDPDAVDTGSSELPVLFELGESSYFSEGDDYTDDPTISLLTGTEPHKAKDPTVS
The test can be described thus: enhancement of HSF1-driven luciferase signal – cell-based, NIH3T3, luminescence, dose retest, confirmation (AID 435004).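 Note: stress induced by proteasome inhibitor MG132 added 30 min after compound; luciferase reporter driven by HSF1 response element in NIH3T3 cells; actives raise luminescence as potentiators of the MG132 stress response.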 Format: functional.

The target of test [2] is T2, Trace amine-associated receptor 1 (Homo sapiens, UniProt Q96RJ0).
T2 sequence (Q96RJ0 whole entry): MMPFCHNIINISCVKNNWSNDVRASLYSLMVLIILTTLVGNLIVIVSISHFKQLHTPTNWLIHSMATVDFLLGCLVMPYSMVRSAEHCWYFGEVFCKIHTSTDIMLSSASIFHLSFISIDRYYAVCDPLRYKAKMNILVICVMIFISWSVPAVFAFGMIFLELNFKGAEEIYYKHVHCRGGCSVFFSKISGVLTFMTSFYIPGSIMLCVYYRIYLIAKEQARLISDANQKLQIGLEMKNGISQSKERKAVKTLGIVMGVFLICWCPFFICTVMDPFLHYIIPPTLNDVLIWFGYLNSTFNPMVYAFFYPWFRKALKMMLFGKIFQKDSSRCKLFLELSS
The test can be described thus: Counterscreen for agonists of the human trace amine associated receptor 1 (hTAAR1): Fluorescence-based cell-based high throughput dose response assay to identify hTAAR1 agonist that also desensitize TAAR1 receptor response. Format: functional. Background: A counterscreen serves to expose hits that act by an unwanted route or on another target.

Test [3] can be described thus: cells. The test is classed as functional, cell-based.
Test [4] can be described thus: cells. The test is classed as functional, cell-based. The source holds these as a separate data set.
The target in test [5] is T2, Trace amine-associated receptor 1. The test can be described thus: Fluorescence-based cell-based high throughput dose response assay to identify agonists of the human trace amine associated receptor 1 (TAAR1). Format: functional.
For test [6], the target named is T3, Histone-lysine N-methyltransferase NSD2 (Homo sapiens, UniProt O96028).
T3 sequence (O96028 whole entry): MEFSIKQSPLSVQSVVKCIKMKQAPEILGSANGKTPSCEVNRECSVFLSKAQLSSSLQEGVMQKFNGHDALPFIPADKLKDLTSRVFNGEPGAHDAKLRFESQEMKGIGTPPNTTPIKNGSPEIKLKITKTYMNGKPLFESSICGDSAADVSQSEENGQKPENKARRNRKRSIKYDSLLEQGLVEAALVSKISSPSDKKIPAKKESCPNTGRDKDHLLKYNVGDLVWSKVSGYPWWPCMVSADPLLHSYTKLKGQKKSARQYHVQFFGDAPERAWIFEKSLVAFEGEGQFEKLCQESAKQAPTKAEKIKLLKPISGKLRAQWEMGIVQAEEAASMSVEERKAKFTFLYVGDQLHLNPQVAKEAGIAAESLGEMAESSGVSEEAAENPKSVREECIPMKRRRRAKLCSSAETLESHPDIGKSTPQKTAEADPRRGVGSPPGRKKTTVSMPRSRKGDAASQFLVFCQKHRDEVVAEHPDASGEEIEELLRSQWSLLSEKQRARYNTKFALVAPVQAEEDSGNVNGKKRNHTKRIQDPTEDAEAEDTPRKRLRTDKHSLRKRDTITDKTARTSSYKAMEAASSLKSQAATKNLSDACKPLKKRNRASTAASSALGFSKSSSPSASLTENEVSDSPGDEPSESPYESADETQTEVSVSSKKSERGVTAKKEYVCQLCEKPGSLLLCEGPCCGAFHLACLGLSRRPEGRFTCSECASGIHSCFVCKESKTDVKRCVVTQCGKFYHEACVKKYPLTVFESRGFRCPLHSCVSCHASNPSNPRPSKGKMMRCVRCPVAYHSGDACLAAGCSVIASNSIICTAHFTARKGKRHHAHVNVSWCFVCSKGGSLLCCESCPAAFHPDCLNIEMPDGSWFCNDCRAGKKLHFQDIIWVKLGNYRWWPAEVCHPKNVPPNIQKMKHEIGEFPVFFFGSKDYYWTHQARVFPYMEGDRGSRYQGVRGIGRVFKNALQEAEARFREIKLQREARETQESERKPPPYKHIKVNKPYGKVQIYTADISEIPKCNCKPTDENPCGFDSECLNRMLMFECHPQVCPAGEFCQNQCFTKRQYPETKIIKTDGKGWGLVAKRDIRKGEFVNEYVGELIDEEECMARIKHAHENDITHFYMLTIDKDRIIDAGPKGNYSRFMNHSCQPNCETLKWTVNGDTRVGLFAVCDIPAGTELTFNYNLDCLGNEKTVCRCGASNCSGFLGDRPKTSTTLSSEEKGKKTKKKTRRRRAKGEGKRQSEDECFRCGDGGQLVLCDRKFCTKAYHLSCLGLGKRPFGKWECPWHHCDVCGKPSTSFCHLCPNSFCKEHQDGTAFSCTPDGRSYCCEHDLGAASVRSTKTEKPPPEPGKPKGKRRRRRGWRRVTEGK
Format: biochemical.

For test [7], the target named is T4, Tyrosyl-DNA phosphodiesterase 2 (Homo sapiens, UniProt O95551).
T4 sequence (O95551 whole entry): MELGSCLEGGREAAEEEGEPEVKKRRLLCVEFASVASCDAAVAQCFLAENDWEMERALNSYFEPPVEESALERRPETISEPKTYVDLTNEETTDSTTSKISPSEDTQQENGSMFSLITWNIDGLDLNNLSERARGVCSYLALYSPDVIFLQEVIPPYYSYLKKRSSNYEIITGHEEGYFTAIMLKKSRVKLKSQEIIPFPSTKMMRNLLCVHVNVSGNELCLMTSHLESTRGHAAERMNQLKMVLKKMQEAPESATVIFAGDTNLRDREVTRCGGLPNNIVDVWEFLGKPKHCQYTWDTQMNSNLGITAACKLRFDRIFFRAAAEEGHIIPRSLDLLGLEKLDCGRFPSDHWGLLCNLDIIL
Kind of test: potency against TDP2 phosphodiesterase activity – biochemical, epi absorbance, IC50, dose response (AID 743297).

For test [8], the target named is T5, fMet-Leu-Phe receptor (Homo sapiens, UniProt P21462).
T5 sequence (P21462 whole entry): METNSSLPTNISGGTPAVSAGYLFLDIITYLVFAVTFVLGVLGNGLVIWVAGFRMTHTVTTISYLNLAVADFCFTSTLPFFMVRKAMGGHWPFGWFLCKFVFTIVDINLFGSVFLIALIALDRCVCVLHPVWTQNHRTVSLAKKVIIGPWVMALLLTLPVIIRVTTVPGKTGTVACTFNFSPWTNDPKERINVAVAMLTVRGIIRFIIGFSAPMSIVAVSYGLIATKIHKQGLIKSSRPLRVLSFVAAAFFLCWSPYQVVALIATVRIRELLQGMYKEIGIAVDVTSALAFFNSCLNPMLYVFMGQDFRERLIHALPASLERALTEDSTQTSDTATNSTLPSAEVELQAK
Kind of test: formyl peptide receptor binders – dose response (AID 519). Format: functional.

A short description of test [9]: OVCAR-3 cell viability loss – plate reader, dry powder samples, PAX8 inhibitor project, dose response (AID 743044). Format: functional, cell-based.
Test [10] is described as follows: OVCAR8 cell viability loss – plate reader, dry powder samples, PAX8 project, dose response (AID 743197). The test is classed as functional, cell-based. The settings on record: OVCAR-8.
Test [11] has as its target Paired box protein Pax-8 (Homo sapiens, UniProt Q06710). Kind of test: PAX8 transcriptional activity inhibition in RMG-I – RMG-I cells, luciferase, cherry-pick, dose response (AID 687027).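 Note: luciferase reporter driven by Pax8 target thyroperoxidase promoter measured by SteadyGlo luminescence.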 Format: functional, cell-based.
Test [12] in a line: general cell-killing toxicity readout – plate reader, dry powder samples, cytotoxicity control for PAX8 inhibitor project, dose response (AID 743021). Format: functional, cell-based.

Chain of Paired box protein Pax-8 (Q06710 whole entry): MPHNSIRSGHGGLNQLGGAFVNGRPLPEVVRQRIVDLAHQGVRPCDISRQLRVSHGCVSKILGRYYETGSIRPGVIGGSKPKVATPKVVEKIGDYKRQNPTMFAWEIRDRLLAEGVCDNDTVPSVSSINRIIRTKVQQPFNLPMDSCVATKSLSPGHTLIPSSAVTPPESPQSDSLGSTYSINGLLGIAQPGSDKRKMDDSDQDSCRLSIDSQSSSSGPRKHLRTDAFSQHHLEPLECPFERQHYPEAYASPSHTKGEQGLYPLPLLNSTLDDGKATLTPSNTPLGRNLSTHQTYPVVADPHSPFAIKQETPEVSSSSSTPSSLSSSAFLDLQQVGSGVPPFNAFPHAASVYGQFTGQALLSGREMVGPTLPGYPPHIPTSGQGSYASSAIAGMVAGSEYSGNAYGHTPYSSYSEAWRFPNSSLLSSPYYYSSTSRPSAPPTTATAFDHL

In the case of `O=C(CCN1CCc2ccccc2C(c2ccccc2)C1)c1ccc2c(c1)OCCO2` (stereo not given), the EC50 in test [1] is > 260 µM (inactive); in [3] it was > 29.9 µM (inactive); in [5], 4.51 µM (active). For the same compound, the results for the half-maximal inhibitory concentration (IC50) in test [2] and in test [4] were 9.28 µM (active) and > 29.9 µM (inactive), respectively.
Turning to `S=C(Nc1ccc2nsnc2c1)N1CCCCC1`, the concentration at half-maximal activity (AC50) in test [6] was 5.13 µM (active). Moreover, the IC50 in test [7] was > 128 µM (inactive).
Regarding `C[N+]1(C)[C@@H]2C[C@@H](OC(=O)[C@H](CO)c3ccccc3)C[C@H]1[C@@H]1O[C@@H]12`, in test [8], the Ki is > 66.7 µM (inactive).
With `COC(=O)Cc1n[nH]c2c1C(C1C=CCCC1)C(C#N)=C(N)O2` (stereo not given), the Ki in test [8] was > 66.7 µM (inactive).
Consider `C[C@H](CO)N1C[C@H](C)[C@H](CN(C)S(=O)(=O)c2ccc(Cl)cc2)Oc2c(NC(=O)Nc3ccc(F)cc3)cccc2C1=O`, for which the concentration at half-maximal activity (AC50) in test [9] was 31.8 µM (active); in [10], 31.8 µM (active); in test [11] it was 10.2 µM (active); in test [12] it was 51.4 µM (active).
For the compound `C[C@@H]1CCCCO[C@H](CN(C)S(=O)(=O)c2ccc(F)cc2)[C@H](C)CN([C@@H](C)CO)C(=O)c2cc(NS(=O)(=O)c3ccc(Cl)cc3)ccc2O1`, the AC50 is 9.75 µM (active) in [11] and 68.4 µM (active) in test [12].

As usually defined, the EC50 is the concentration at which the effect is half-maximal. The IC50 is the concentration that gives 50% inhibition. Usually AC50 stands for the midpoint of the concentration-response curve, whichever way the signal moves. The Ki is a measure of affinity in units of concentration, obtained from inhibition or displacement.
